Measurements published in article PMC8878317, “Chemogenomics identifies acetyl-coenzyme A synthetase as a target for malaria treatment and prevention” (Cell Chemical Biology, 2022).

System: P. falciparum 3D7 parasites
Assay: Metabolomic profiling of compound-treated parasites (LC/MS);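 on Metabolite data: 3-Phosphoglycerate: Log2 fold change in abundance versus untreated parasite controls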;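 on Metabolite data: Myo-Inositol: Log2 fold change in abundance versus untreated parasite controls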;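 on Metabolite data: N-Carbamoyl-L-Aspartate: Log2 fold change in abundance versus untreated parasite controls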;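 on Metabolite data: Nicotinate: Log2 fold change in abundance versus untreated parasite controls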
Type: cell-based
Parameters: Metabolite data: dTMP / Metabolite data: GMP / Metabolite data: S-Adenosyl-L-Homocysteine / Metabolite data: 1_3-Bisphosphoglyceric acid: scale not given here
Experimental: The metabolite extraction protocol was performed as described elsewhere ([Allman et al., 2016]). Briefly, 1 mL of trophozoites that were magnetically purified to a concentration of 1×10^8 parasites/mL were placed into wells with 4 mL of RPMI 1640 media and allowed to recover for one hour. […] The culture was incubated for another 2.5 hr. The culture was centrifuged and quenched with 90% methanol containing 0.25 μM ^13C,^15N-Labeled-Aspartate, vortexed, and centrifuged. The supernatant was transferred to a new tube and dried for storage. Prior to analysis, the samples were resuspended to a final concentration of 1×10^8 parasites/mL in a solution of 3% methanol:water containing 1 μM chlorpropamide as an internal standard.
The chromatographic conditions used in this experiment were performed with slight modifications from previous methods ([Zhang et al., 2018]). Briefly, a Waters XSelect HSS C18 column was used on a gradient reverse-phase chromatographic configuration with 97:3 water:methanol with 10 mM tributylamine and 15 mM acetic acid (solvent A) and methanol (solvent B). A Thermo-Scientific Exactive Plus Orbitrap mass spectrometer was operated in negative mode for the detection of the metabolites. Peak picking and integration were performed using El-Maven LC/MS data processing software. The peak data were then exported to Excel where metabolite areas were normalized to the internal standards, blank subtracted, and averaged by condition.

O=C(NNC(=O)c1csnn1)c1ccc(Cl)cc1 [MMV084978-1]
Metabolite data: 1_3-Bisphosphoglyceric acid: 0.1496 | Metabolite data: 2_3-Diphosphoglyceric acid: 0.1496 | Metabolite data: 3-Phosphoglycerate: 0.2498 | Metabolite data: 4-Aminobutyrate: -0.07219 | Metabolite data: 4-Phosphopantothenate: -0.08759 | Metabolite data: 4-phosphopantetheine: -0.1079 | Metabolite data: 5-aminopentanoic acid: 0 | Metabolite data: 5-phosphoribosyl-1-pyrophosphate: 0 | Metabolite data: 6-Phospho-D-Gluconate: -0.01315 | Metabolite data: ADP-D-Glucose: 0.08201 | Metabolite data: Acetyl-CoA: -3.327 | Metabolite data: Acetyllysine: -0.5311 | Metabolite data: Aconitate: -0.1935 | Metabolite data: CDP: 1.05 | Metabolite data: CDP-Ethanolamine: 0.1123 | Metabolite data: CDP-choline: -0.1263 | Metabolite data: CMP: 1.555 | Metabolite data: CTP: 0.5959 | Metabolite data: Citrate/Isocitrate: -0.25 | Metabolite data: Cyclic-AMP: -0.2917 | Metabolite data: Dihydroorotate: -1.467 | Metabolite data: FAD: 0.02838 | Metabolite data: FMN: 0.1073 | Metabolite data: Fructose-1,6-Bisphosphate: -0.1507 | Metabolite data: Fumarate: -0.2504 | Metabolite data: GDP: 0.1753 | Metabolite data: GMP: 0.5608 | Metabolite data: GTP: 0.3192 | Metabolite data: Glucose-1/6-Phosphate: 0 | Metabolite data: Glutathione Disulfide: -0.0421 | Metabolite data: Hexose: 0.4607 | Metabolite data: Hydroxyisocaproic acid: 0 | Metabolite data: Indole: -0.02938 | Metabolite data: Ketoleucine: 0 | Metabolite data: L-arginino-succinate: -0.1583 | Metabolite data: Lactate: -0.4518 | Metabolite data: Malate: -0.3092 | Metabolite data: Myo-Inositol: -0.662 | Metabolite data: N-Acetyl-Glutamate: -1.234 | Metabolite data: N-Acetyl-L-Alanine: -0.1942 | Metabolite data: N-Acetyl-L-Ornithine: -0.6079 | Metabolite data: N-Carbamoyl-L-Aspartate: -1.86 | Metabolite data: NAD+: -0.05754 | Metabolite data: NADH: -0.03997 | Metabolite data: NADP+: -0.01332 | Metabolite data: NADPH: -0.02772 | Metabolite data: Nicotinate: -0.2079 | Metabolite data: Octulose 8/1-Phosphate: 0.04337 | Metabolite data: Orotate: -1.48 | Metabolite data: PD: -0.5076 | Metabolite data: PE: -0.5728 | Metabolite data: PEEK: -0.4082 | Metabolite data: Phenol Red: -0.09162 | Metabolite data: Pyroglutamic acid: -0.04117 | Metabolite data: S-Adenosyl-L-Homocysteine: -0.1413 | Metabolite data: S-methyl-5'-thioadenosine: -0.2314 | Metabolite data: SD: -0.5901 | Metabolite data: Sedoheptulose Bisphosphate: -0.08586 | Metabolite data: UDP: 0.6291 | Metabolite data: UDP-D-Glucose: 0.0869 | Metabolite data: UDP-D-Glucuronate: 0.1009 | Metabolite data: UDP-N-Acetyl-Glucosamine: -0.1998 | Metabolite data: UMP: 1.083 | Metabolite data: UTP: 0.2924 | Metabolite data: a-ketoglutarate: -0.2708 | Metabolite data: acetyl-aspartate: -0.01834 | Metabolite data: arginine: 0.1881 | Metabolite data: asparagine: 0.1209 | Metabolite data: aspartate: 0.4643 | Metabolite data: biotin: -0.04446 | Metabolite data: chlorpropamide: -1.60E-16 | Metabolite data: coenzyme A: -0.006892 | Metabolite data: dAMP: 0.6117 | Metabolite data: dATP: 0.1596 | Metabolite data: dCDP: -0.02418 | Metabolite data: dCMP: 0.3076 | Metabolite data: dCTP: 0.1432 | Metabolite data: dGDP/ADP: -0.04263 | Metabolite data: dGMP/AMP: -0.1821 | Metabolite data: dGTP/ATP: 0.1752 | Metabolite data: dTDP: 0.5413 | Metabolite data: dTMP: 0.4313 | Metabolite data: dTTP: 0.1959 | Metabolite data: folate: -0.04496 | Metabolite data: glucono-lactone: -0.03642 | Metabolite data: glutamate: -0.04994 | Metabolite data: glutamine: 0.01906 | Metabolite data: glutathione: -0.07032 | Metabolite data: histidine: -0.03336 | Metabolite data: hydroxyproline/Aminolevulinate: -0.01874 | Metabolite data: isoleucine: 0.003243 | Metabolite data: leucine: -0.0173 | Metabolite data: maleic acid: -0.282 | Metabolite data: methionine: 0.1423 | Metabolite data: nicotinamide mononucleotide: -0.4705 | Metabolite data: orotidine-5'-phosphate: -2.397

C[C@H]1Cc2c([nH]c3cc(Cl)c(F)cc23)[C@@]2(N1)C(=O)Nc1ccc(Cl)cc12 [NITD609]
Metabolite data: 1_3-Bisphosphoglyceric acid: 0 | Metabolite data: 2_3-Diphosphoglyceric acid: -2.22 | Metabolite data: 3-Phosphoglycerate: 0.01 | Metabolite data: 4-Aminobutyrate: -0.54 | Metabolite data: 4-Phosphopantothenate: -0.15 | Metabolite data: 4-phosphopantetheine: 0 | Metabolite data: 5-aminopentanoic acid: 0 | Metabolite data: 5-phosphoribosyl-1-pyrophosphate: 0 | Metabolite data: 6-Phospho-D-Gluconate: -0.28 | Metabolite data: ADP-D-Glucose: 0.02 | Metabolite data: Acetyl-CoA: -0.54 | Metabolite data: Acetyllysine: -1.93 | Metabolite data: Aconitate: 0.62 | Metabolite data: CDP: -0.29 | Metabolite data: CDP-Ethanolamine: -0.28 | Metabolite data: CDP-choline: 0 | Metabolite data: CMP: 1.24 | Metabolite data: CTP: -1.27 | Metabolite data: Citrate/Isocitrate: 0.19 | Metabolite data: Cyclic-AMP: -1.16 | Metabolite data: Dihydroorotate: -2.01 | Metabolite data: FAD: -1.31 | Metabolite data: FMN: -1 | Metabolite data: Fructose-1,6-Bisphosphate: -1.13 | Metabolite data: Fumarate: -0.06 | Metabolite data: GDP: -2.58 | Metabolite data: GMP: -2.42 | Metabolite data: GTP: -1.11 | Metabolite data: Glucose-1/6-Phosphate: -0.9 | Metabolite data: Glutathione Disulfide: -0.38 | Metabolite data: Hexose: 0 | Metabolite data: Hydroxyisocaproic acid: 0 | Metabolite data: Indole: 0.17 | Metabolite data: Ketoleucine: 0 | Metabolite data: L-arginino-succinate: 0 | Metabolite data: Lactate: -1.31 | Metabolite data: Malate: -0.06 | Metabolite data: Myo-Inositol: -3.27 | Metabolite data: N-Acetyl-Glutamate: -0.27 | Metabolite data: N-Acetyl-L-Alanine: -1.42 | Metabolite data: N-Acetyl-L-Ornithine: -1.27 | Metabolite data: N-Carbamoyl-L-Aspartate: -4.57 | Metabolite data: NAD+: -0.4 | Metabolite data: NADH: 0.03 | Metabolite data: NADP+: -0.12 | Metabolite data: NADPH: 0.35 | Metabolite data: Nicotinate: 0.78 | Metabolite data: Octulose 8/1-Phosphate: -1.92 | Metabolite data: Orotate: 0.91 | Metabolite data: PD: 0 | Metabolite data: PE: 0 | Metabolite data: PEEK: 0 | Metabolite data: Phenol Red: 0 | Metabolite data: Pyroglutamic acid: -0.06 | Metabolite data: S-Adenosyl-L-Homocysteine: -1.64 | Metabolite data: S-methyl-5'-thioadenosine: -0.53 | Metabolite data: SD: 0 | Metabolite data: Sedoheptulose Bisphosphate: -1.34 | Metabolite data: UDP: -0.96 | Metabolite data: UDP-D-Glucose: -0.2 | Metabolite data: UDP-D-Glucuronate: -0.36 | Metabolite data: UDP-N-Acetyl-Glucosamine: 0.03 | Metabolite data: UMP: -0.38 | Metabolite data: UTP: -2.05 | Metabolite data: a-ketoglutarate: 0.5 | Metabolite data: acetyl-aspartate: 0 | Metabolite data: arginine: 0 | Metabolite data: asparagine: 0 | Metabolite data: aspartate: 0 | Metabolite data: biotin: 0 | Metabolite data: chlorpropamide: 0 | Metabolite data: coenzyme A: 0 | Metabolite data: dAMP: 2.56 | Metabolite data: dATP: -0.71 | Metabolite data: dCDP: 1.68 | Metabolite data: dCMP: 1.5 | Metabolite data: dCTP: 0.45 | Metabolite data: dGDP/ADP: 0 | Metabolite data: dGMP/AMP: -1.14 | Metabolite data: dGTP/ATP: 0 | Metabolite data: dTDP: 2.45 | Metabolite data: dTMP: 3.96 | Metabolite data: dTTP: 1.4 | Metabolite data: folate: 0 | Metabolite data: glucono-lactone: 0 | Metabolite data: glutamate: 0 | Metabolite data: glutamine: 0 | Metabolite data: glutathione: 0 | Metabolite data: histidine: 0 | Metabolite data: hydroxyproline/Aminolevulinate: 0 | Metabolite data: isoleucine: 0 | Metabolite data: leucine: 0 | Metabolite data: maleic acid: 0 | Metabolite data: methionine: 0 | Metabolite data: nicotinamide mononucleotide: 0 | Metabolite data: orotidine-5'-phosphate: 0
